Assay results reported in paper PMC10840383, “Clinical features, functional consequences, and rescue pharmacology of missense GRID1 and GRID2 human variants” (Human Molecular Genetics, 2023).
Where a chain is given by its changes, count along the chain named. Entries after “also recorded” stand apart in the source; their conditions may differ. Where two headings read alike, the source gives them in different places. One block for each compound: values may come before it.

Legend:
Assay type in all cases: cell-based
[1] = target: T1, GluD1-A650T (Homo sapiens, UniProt Q9ULK0, A650T); experiment: TEVC of constitutive current, Xenopus oocytes expressing GluD1-A650T; conditions: for EC50: modulation of constitutive current
T1 construct: expressed in transfected cells; host or cells: Xenopus laevis oocytes injected with cRNA
T1 sequence (Q9ULK0 21-1009 A650T): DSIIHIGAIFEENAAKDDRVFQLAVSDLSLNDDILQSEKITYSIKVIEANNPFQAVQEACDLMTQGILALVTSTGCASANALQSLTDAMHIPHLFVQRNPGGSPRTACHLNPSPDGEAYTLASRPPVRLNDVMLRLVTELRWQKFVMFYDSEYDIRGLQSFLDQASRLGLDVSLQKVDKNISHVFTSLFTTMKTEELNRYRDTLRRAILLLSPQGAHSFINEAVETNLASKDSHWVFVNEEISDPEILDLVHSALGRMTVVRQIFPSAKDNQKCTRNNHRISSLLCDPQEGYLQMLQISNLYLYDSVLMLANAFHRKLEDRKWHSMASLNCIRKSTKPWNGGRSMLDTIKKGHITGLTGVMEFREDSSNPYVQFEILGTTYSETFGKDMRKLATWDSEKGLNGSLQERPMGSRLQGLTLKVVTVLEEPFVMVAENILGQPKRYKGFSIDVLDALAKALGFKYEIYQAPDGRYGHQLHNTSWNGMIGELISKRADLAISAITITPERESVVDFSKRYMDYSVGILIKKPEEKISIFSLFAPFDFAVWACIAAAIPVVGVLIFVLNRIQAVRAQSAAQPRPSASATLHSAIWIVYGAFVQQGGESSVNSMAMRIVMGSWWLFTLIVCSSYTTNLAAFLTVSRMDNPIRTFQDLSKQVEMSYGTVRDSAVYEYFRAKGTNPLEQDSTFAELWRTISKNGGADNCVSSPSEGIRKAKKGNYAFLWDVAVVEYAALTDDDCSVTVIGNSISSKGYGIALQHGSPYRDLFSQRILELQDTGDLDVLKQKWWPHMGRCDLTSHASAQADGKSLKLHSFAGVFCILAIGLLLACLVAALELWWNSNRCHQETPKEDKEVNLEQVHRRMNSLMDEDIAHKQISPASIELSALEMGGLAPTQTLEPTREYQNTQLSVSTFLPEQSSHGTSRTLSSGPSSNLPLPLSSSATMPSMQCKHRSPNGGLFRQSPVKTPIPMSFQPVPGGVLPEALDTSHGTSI

[2] = target: T2, GluD2-A654D (Rattus norvegicus, UniProt Q63226, A654D); experiment: TEVC of constitutive current, Xenopus oocytes expressing GluD2-A654D
T2 construct: expressed in transfected cells; host or cells: Xenopus laevis oocytes injected with cRNA
T2 sequence (Q63226 24-1007 A654D): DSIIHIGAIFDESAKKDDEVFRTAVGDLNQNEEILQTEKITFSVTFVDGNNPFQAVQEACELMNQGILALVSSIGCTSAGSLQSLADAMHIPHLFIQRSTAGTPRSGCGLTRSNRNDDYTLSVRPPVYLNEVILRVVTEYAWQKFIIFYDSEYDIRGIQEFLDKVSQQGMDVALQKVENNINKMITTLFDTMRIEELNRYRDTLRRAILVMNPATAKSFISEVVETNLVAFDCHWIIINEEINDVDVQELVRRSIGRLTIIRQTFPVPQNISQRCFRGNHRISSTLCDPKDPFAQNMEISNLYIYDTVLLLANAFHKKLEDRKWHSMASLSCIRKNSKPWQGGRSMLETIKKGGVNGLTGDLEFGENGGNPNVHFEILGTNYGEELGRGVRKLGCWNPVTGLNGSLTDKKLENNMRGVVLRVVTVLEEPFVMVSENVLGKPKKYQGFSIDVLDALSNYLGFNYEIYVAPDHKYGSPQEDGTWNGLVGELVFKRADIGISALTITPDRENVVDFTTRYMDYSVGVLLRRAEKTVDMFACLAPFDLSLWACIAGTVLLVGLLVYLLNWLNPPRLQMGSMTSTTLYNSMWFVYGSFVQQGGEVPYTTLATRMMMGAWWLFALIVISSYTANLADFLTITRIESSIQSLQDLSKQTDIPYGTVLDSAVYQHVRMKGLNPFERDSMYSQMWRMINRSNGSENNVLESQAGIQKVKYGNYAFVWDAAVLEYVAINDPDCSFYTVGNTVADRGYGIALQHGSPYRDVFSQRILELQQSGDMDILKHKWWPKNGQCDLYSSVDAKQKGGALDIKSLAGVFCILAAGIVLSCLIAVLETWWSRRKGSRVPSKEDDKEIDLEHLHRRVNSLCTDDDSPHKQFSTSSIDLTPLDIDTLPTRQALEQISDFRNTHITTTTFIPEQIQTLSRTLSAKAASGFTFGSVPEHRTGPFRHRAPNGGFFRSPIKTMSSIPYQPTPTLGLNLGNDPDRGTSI

[3] = target: T3, GluD2-A654T (Rattus norvegicus, UniProt Q63226, A654T); experiment: TEVC of constitutive current, Xenopus oocytes expressing GluD2-A654T (lurcher)
T3 construct: expressed in transfected cells; host or cells: Xenopus laevis oocytes injected with cRNA
T3 sequence (Q63226 24-1007 A654T): T2 sequence (Q63226 24-1007 A654D) with D631T

[4] = normalized to NMDG+ − Na+ difference current
[5] = 10 mM D-serine, positive = increase, negative = decrease of activity
[6] = percent of constitutive leak current (NMDG+/Na+ difference current)
[7] = inhibition of constitutive current, read-out: Memantine IC50
[8] = 100 μM pentamidine, positive = increase, negative = decrease of activity

- Effect on constitutive current, in words [1]: modestly inhibited
- EC50 ([1]; inhibited by Ca2+ (not potentiated), read-out: Ca2+ EC50 [95% CI]): 290 µM
- Ca2+ % Max (NMDG+ − Na+) Mean ± SEM [1, 4]: 65 ± 3 (10) %
- EC50 ([2]; modulation of constitutive current, inhibited by Ca2+ (not potentiated), read-out: Ca2+ EC50 [95% CI]): 170 µM
- Ca2+ % Max (NMDG+ − Na+) Mean ± SEM [2, 4]: 82 ± 10 (12) %
- Ca2+ EC50 A654T/EC50 variant ([2]; ratio): 0.88
- Ca2+ EC50 of the relation Ca2+ concentration vs D-serine IC50 ([3]; Hill fit, Fig. S7A): 590 µM
- Hill slope of the relation Ca2+ concentration vs D-serine IC50 ([3]; Hill fit, Fig. S7A): 1.1
- Ca2+ % Max (NMDG+ − Na+) Mean ± SEM [3, 4]: 299 ± 5.8 (32) %
- EC50 ([3]; potentiation of constitutive current, read-out: Ca2+ EC50 [95% CI]): 150 µM
- Ca2+ EC50 A654T/EC50 variant ([3]; ratio): 1.0
SMILES: [Ca+2] [Ca^2+]
- Effect on constitutive current, in words [2]: weak inhibitor; also recorded: modestly inhibited

- D-Serine effect (Baseline −10 mM D-Serine) [1, 5]: 810 ± 130 (12) nA
- D-serine % Max (NMDG+ − Na+) Mean ± SEM [1, 6]: 120 ± 1.8 (11) %
- EC50 ([1]; read-out: D-serine EC50 [95% CI], potentiated by D-serine (not inhibited)): 130 µM
- D-Serine effect (Baseline −10 mM D-Serine) [2, 5]: −29 ± 10 (14) nA
- D-serine % Max (NMDG+ − Na+) Mean ± SEM [2, 6]: 85 ± 2.6 (15) %
- D-serine Hill slope ([3]; 1 mM Ca2+, Fig. S7B): 2.5
- D-serine Maximum ([3]; 1 mM Ca2+, Fig. S7B): 73%
- Reduction of maximum possible activity (Na+ −NMDG+ difference current) by D-serine ([3]; 10 mM D-serine): ~ 50%
- D-Serine effect (Baseline −10 mM D-Serine) [3, 5]: −1000 ± 130 (14) nA
- D-serine % Max (NMDG+ − Na+) Mean ± SEM [3, 6]: 51 ± 1.3 (32) %
SMILES: N[C@H](CO)C(=O)O [D-serine]
- Effect on constitutive current, in words [1]: modestly potentiated; also recorded: slightly potentiated
- Effect on constitutive current, in words [2]: little effect; also recorded: near complete loss of D-serine potency

- IC50 [1, 7]: > 300 µM
- IC50 [2, 7]: 55 µM
- IC50 [3, 7]: 89 µM
SMILES: CC12CC3CC(C)(C1)CC(N)(C3)C2 [Memantine, memantine]

SMILES: N=C(N)c1ccc(OCCCCCOc2ccc(C(=N)N)cc2)cc1 [Pentamidine, pentamidine]
- Pentamidine effect (Baseline −100 μM Pentamidine) [1, 8]: −1090 ± 200 (12) nA
- IC50 ([1]; read-out: Pentamidine IC50): 20 µM
- Pentamidine effect (Baseline −100 μM Pentamidine) [2, 8]: −700 ± 160 (14) nA
- IC50 ([2]; read-out: Pentamidine IC50): 3.7 µM
- Pentamidine effect (Baseline −100 μM Pentamidine) [3, 8]: −930 ± 130 (14) nA
- IC50 ([3]; read-out: Pentamidine IC50): 9.6 µM
